This is an account of results in patent EP0943680A1 (priority 1998, dated 1999).

Structures are written as SMILES. ≈ marks a conversion by molar mass, not a printed value. Entries after “also recorded” stand apart in the source; their conditions may differ. Where two headings read alike, the source gives them in different places. Marks after values point to notes of the source that are not given here.

The test system of series [1] is Neoplastic cells forming a tumor. The following applies: cited from earlier work.
In series [2] the test system is rat glioblastoma C6 cells brain tumour.
The test system of series [3] is Sk-N-MC Human Neuroblastoma. In kind it is cell-based. As to conditions: parental Sk-N-MC.
The subject of series [4] is ΨCRIP Murine Amphotropic Packaging Cells lin ^+ clones. Briefly: cells. The following applies: Mus musculus.
The conditions of series [5]: rat kidney only; 1-20 mM linamarin, pH 6 and 7.4, 37°C.
For the next series, the system named is normal rat brains. As to conditions: local administration of up to 9 mg of linamarin.
For a further series, the system named is animals. As to conditions: cited from earlier work.
Series [6] deals with NlH 3T3 Murine Fibroblasts. In kind it is cell-based. The following applies: parental 3T3.
The conditions of series [7]: all human tissues; 1-20 mM linamarin, pH 6 and 7.4, 37°C.
For the next series, the system named is C6, ΨCRIP and 3T3. The following applies: very high concentrations of linamarin; cells without linamarase gene.
Series [8] relates to C6 Rat glioma lin ^+ clones. Nature of the series: cells. Type of series: cell-based. The following applies: for IC50: Rattus norvegicus.
The subject of series [9] is ΨCRIP Murine Amphotropic Packaging Cells. Type of series: cell-based. The following applies: parental ΨCRIP.
In another series the test system is Hs 683 Human Glioma. Type of series: cell-based. The following applies: parental Hs 683.
Series [10] concerns Hs 683 Human Glioma lin ^+ clones. Nature of the series: cells. In kind it is cell-based. As to conditions: Hs 683 lin+.
The test system of series [11] is Sk-N-MC Human Neuroblastoma lin ^+ clones. Nature of the series: cells. Type of series: cell-based.
The subject of series [12] is U-373 MG Human Glioblastoma lin ^+ clones. Briefly: cells. Type of series: cell-based. The following applies: U373 MG, U-373 MG lin+.
The test system of series [13] is ΨCRIPlin plus normal C6 cells labeled red with Dil. In kind it is cell-based.
Another series deals with Female hamsters. As to conditions: oral dose of 108 mg of linamarin/kg body weight; cited from earlier work.
The subject of series [14] is ΨCRIPlin /ΨCRIP red or ΨCRIPlin /3T3 red. Type of series: cell-based. The following applies: 100 µg/ml linamarin.
Series [15] has as its system FLYA13 Human Amphotropic Packaging Cells lin ^+ clones. Briefly: cells. Type of series: cell-based.
The next series deals with C6 Rat glioma. In kind it is cell-based.
For series [16], the system named is FLYA13 Human Amphotropic Packaging Cells. Type of series: cell-based. As to conditions: parental FLYA13.
Series [17] concerns brain tumor of glioblastoma-C6lin transfected cells. Type of series: in vivo, Wistar rats.
The conditions of series [18]: in the absence of linamarase; cited from earlier work.
Series [19] has as its system Ag 9181 Human Fibroblasts. Type of series: cell-based. As to conditions: parental Ag 9181.
A further series concerns adults. As to conditions: human, in vivo.
Series [20] concerns U-373 MG Human Glioblastoma. Type of series: cell-based. The following applies: parental U-373 MG.
[21] abbreviates: best clone, read-out: IC50 µg/ml Linamarin lin ^+ clones Best clone.
The mark [22] stands for this setting: mean of at least 4 clones, […], read-out: IC50 µg/ml Linamarin lin ^+ clones Mean value.

As for `N#CO` [sodium cyanate], the “higher sensitivity to the inhibitory effects at decreased extracellular pH” value in series [1] is listed as at least 50%.
Consider `CC(C)(C#N)O[C@@H]1O[C@H](CO)[C@@H](O)[C@H](O)[C@H]1O` [linamarin, 2-0H-isobutyronitrile-β-D-glucopyranoside], for which the “outcome of the medium size tumour animal” value in [2] (rat, in vivo) is on record as “died a month later”. In series [2] (tumours of 220 and 140 mm^3, […]), the “outcome of control animals treated only with the prodrug” value was “died shortly afterwards”. For the same molecule, the “tumour outcome, largest and smallest glioblastomas” value in [2] (tumours of 1000 mm^3 and 400 mm^3, […]) was “total eradication of the tumour”. The “cases developing a recurrence later” value in [2] (very large tumors (over 500 mm^3 in size), after up to six months) was “approximately 50%”. Moreover, the “% of survival cells with 1 mg/ml Linamarin” value in series [3] is reported as 80%; in series [6] it was 90^a %; in [9] (1 mg/ml linamarin), 85%; in the series with Hs 683 Human Glioma, 80%; with C6 Rat glioma (1 mg/ml linamarin, parental C6), 100^a %; in series [16], 88^a %. The “% of survival cells with 1 mg/ml Linamarin” value in series [19] is listed as 89^a %; in [20] it was 80%. Further, the IC50 in [4] (read-out: IC50 µg/ml Linamarin lin ^+ clones Best clone) is 7 µg/mL; in series [4] (read-out: IC50 µg/ml Linamarin lin ^+ clones Mean value), 32 µg/mL; in [4] (read-out: concentrations that resulted in 50% cytotoxicity (IC50)) it was 7 to 60 µg/mL (≈ 28.3 to 243 µM); in series [8] (C6lin clone, pH 6.6, read-out: estimated IC50), 202 µg/mL (≈ 817 µM); in series [8] (C6lin clone, pH 7.4, read-out: estimated IC50), 345 µg/mL (≈ 1400 µM); in [8] (C6 lin+, best clone, read-out: IC50 µg/ml Linamarin lin ^+ clones Best clone), 345 µg/mL. In addition, the IC50 was found to be 407 µg/mL in [8] (C6 lin+, mean of at least 4 clones, […], read-out: IC50 µg/ml Linamarin lin ^+ clones Mean value); 230 µg/mL in series [10] (setting [21]); 288 µg/mL in series [10] (setting [22]); 183 µg/mL in [11] (setting [21]); 215 µg/mL in series [11] (setting [22]); 145 µg/mL in series [12] (setting [21]). The IC50 in series [12] (setting [22]) was 236 µg/mL; in series [15] (FLYA13lin clone, pH 6.6, read-out: estimated IC50) it was 77 µg/mL (≈ 311 µM); in [15] (FLYA13lin clone, pH 7.4, read-out: estimated IC50) it was 195 µg/mL (≈ 789 µM); in series [15] (FLYA13 lin+, best clone, read-out: IC50 µg/ml Linamarin lin ^+ clones Best clone), 195 µg/mL; in series [15] (FLYA13 lin+, mean of at least 4 clones, […], read-out: IC50 µg/ml Linamarin lin ^+ clones Mean value), 382 µg/mL. The results for the “linamarase activity (cyanide release from linamarin)” value in series [5] and in series [7] were “low but detectable levels of cyanide production” and “negative results for linamarase activity”, respectively. Besides, the toxicity result with normal rat brains was “No apparent toxicity”. Besides, the figures for the “toxicity compared with oral dosing” value with animals (administered intraperitoneally) and in the series on animals (similar doses intravenously) were “practically absent” and “much lower”, respectively. Also, the “cyanide detected after linamarin treatment” value with C6, ΨCRIP and 3T3 was “No cyanide was detected”. Further, the “IC50 of C6lin clones relative to ΨCRIP individual clones” value in [8] (in general) amounted to 50 times higher. In series [9] (up to 2 mg/ml of linamarin), the cell survival values entry is recorded as “did not substantially decrease cell survival values”. Also, in [13] (100 µg/ml linamarin), the “viability of either cell type in the mixture” value is reported as “affect only partially the viability”. Further, the “fate of both cell types in the mixture” value in series [13] (2.5 mg/ml of linamarin) is “died”. Further, the “death (cyanide poisoning)” value in the series on Female hamsters is on record as 18 % of the animals. The “fate of the mixtures” value in [14] was “devastated”. Further, the “survival of C6 alone” value in the series on C6 Rat glioma (10 mg/ml linamarin) is recorded as 86%. In addition, the “outcome of the animal” value in series [17] (similar size tumour, only 1 mg of linamarin) was “finally died as a consequence of the tumour”. The “tumour outcome by magnetic resonance imaging” value in series [17] (tumour around 70 mm^3, total of 2.4 mg linamarin over 8 days, local infusion, image three weeks after treatment) is listed as “total absence of the tumoral mass; also recorded: eradicated completely”. In addition, the excretion once absorbed result in [18] is given as “excreted unchanged in the urine”. Further, the “equivalent of the lethal cyanide dose” value with adults lay within 500 to 1000 mg.
